Patent publication US10905761B2, “Use of a lipopeptide or lipoprotein as an adjuvant in therapeutic or prophylactic vaccinations” (HELMHOLTZ-ZENTRUM FUER INFEKTIONSFORSCHUNG GMBH, priority 2002, dated 2021)
“Also recorded” adds a separate entry of the source. No end group written: not given here.

Key:
Assay type in all cases: in vivo
[1] = system: BALB/c (H-2d) mice; test: Kinetics of β-gal-specific IgG responses in sera of mice immunized i.n. or i.p. (Example 4)
Method: Groups of animals (n=5) were immunized either i.n. (A) or i.p. (B) with 50 μg of β-gal ( ), β-gal plus 10 μg of CTB ( ), β-gal plus 0.5 μg of MALP-2 ( ) or pure buffer solution ( ). The days of the immunizations (day 0, 14 and 21) are marked by arrows. The results are shown as the reciprocal log2 of the geometric endpoint titer, and the SEM […] is indicated by means of vertical lines.
Six- to eight-week old female BALB/c (H-2d) mice were purchased from Harlan Winkelmann GmbH (Borchen, Germany) and treated in accordance with local and EU directives. Groups each of 5 mice were immunized on day 1, 14 and 21 either with 40 μg of pure β-galactosidase (Boehringer, Mannheim, Germany) with admixture of 0.5 μg of synthetic MALP-2 or 10 μg of cholera toxin B subunit (CTB; ICN Biomedicals Inc., Ohio) as standard adjuvant. For intranasal administration (i.n.), 10 μl were administered into each nostril, while for the i.p. injection β-galactosidase was resuspended with or without MALP-2 in 400, 100 or 100 μl of PBS. Serum samples were taken at various times (day 0, 13, 20 and 30) and stored at −20° C. until the β-galactosidase-specific antibodies were determined. Nunc-Immuno MaxiSorp assay plates with 96 wells (Nunc, Roskilde, Denmark) were coated with 100 μl of β-gal (Boehringer, Mannheim, Germany) with 5 μg/ml in 0.05 M […] (pH 8.2) per well. Serial two-fold dilutions of the sera or lavages in PBS with 1% BSA and 0.05% Tween-20 were added (100 μl/well) and the plates were incubated at 37° C. for 24 hours. After rinsing, biotinylated γ chain-specific goat anti-mouse IgG (Sigma Chemie, Deisenhofen, Germany) was added, and the plates were incubated at 37° C. for a further hour. After rinsing four times, 100 μl of peroxidase-conjugated streptavidin (Pharmingen) were added to the […], and the plates were incubated at 37° C. for 30 minutes. After rinsing four times, the reactions were developed by means of ABTS in 0.1 M citrate-phosphate buffer (pH 4.35) which contained 0.01% H2O2.

[2] = system: BALB/c (H-2d) mice; test: Humoral responses after immunization by various routes with MALP-2 as adjuvant (serum β-galactosidase-specific antibody ELISA, Example 2); conditions: day 28
Method: Mice were immunized by subcutaneous (s.c.), intraperitoneal (i.p.), intradermal (i.d.) and intranasal (i.n.) routes with either pure β-galactosidase (40 μg) or β-galactosidase mixed with MALP-2 (0.5 μg) on days 0, 7 and 14. On day 28 after the primary immunization, serum samples were removed and the titer of β-galactosidase-specific antibodies was determined by means of an ELISA. The results are shown as reciprocal log2 of the geometric mean of the endpoint titer. As a control, we included a group in which the animals were immunized by the route with β-galactosidase using aluminum hydroxide as adjuvant.
Mice were immunized by the intraperitoneal (i.p.) and intranasal (i.n.) route with either pure β-galactosidase (40 μg/dose) or β-galactosidase mixed with MALP-2 (1 μg/dose) on days 0, 7 and 14. On day 28 after the primary immunization, serum samples were taken and the titer of β-galactosidase-specific antibodies was determined by means of an ELISA. The results are shown as absorbances (OD […]).
Six- to eight-week old female BALB/c (H-2d) mice were purchased from Harlan Winkelmann GmbH (Borchen, Germany) and treated in accordance with local and EU directives. Groups each of 5 mice were immunized on day 1, 7 and 14 either with 40 μg of pure β-galactosidase (Boehringer, Mannheim, Germany), or with admixture of 1 or 0.5 μg of synthetic MALP-2. For the intranasal administration (i.n.), 10 μl was administered into each nostril, whereas for i.p., s.c. and i.d. injection β-galactosidase was resuspended with or without MALP-2 in respectively 400, 100 and 100 μl of PBS. 28 days after the first immunization, serum samples were taken and stored at −20° C. until the β-gal-specific antibodies were determined. Nunc-Immuno MaxiSorp assay plates with 96 wells (Nunc, Roskilde, Denmark) were coated with 100 μl of β-galactosidase (Boehringer, Mannheim, Germany) with 5 μg/ml in 0.05 M carbonate buffer (pH 8.2) per well. Serum dilutions with 1% BSA and 0.05% Tween-20 in PBS were added ([…]), and the plates were incubated at 37° C. for 24 hours. […]

[3] = system: BALB/c (H-2d) mice; test: β-Galactosidase-specific T-cell proliferation of spleen and regional lymph node cells of immunized mice (Example 7)
Method: The cells were restimulated in vitro with various concentrations of soluble β-galactosidase for four days. The results are shown as average cpm subtracted from the background values for unstimulated cells from groups of three. The SEM is depicted by vertical lines.
Lymph nodes located below the lower jaw and the spleens were removed and put together for the analysis of the cellular immune responses. The cells were grown in RPMI 1640 supplemented by 10% fetal calf serum, 10 U/ml penicillin, 50 μg/ml streptomycin, 5×10^−5 M 2-mercaptoethanol and 1 mM L-glutamine (GIBCO BRL, Karlsruhe, Germany) and stored at 37° C. in a moist atmosphere with 5% CO2. The suspensions of lymph node and spleen cells were adjusted to 5×10^6 cells/ml in complete medium and put in a flat-bottomed 96-well microtiter plate (Nunc) with 100 μl/well, and the plates were incubated in the presence of various concentrations of soluble β-galactosidase for 4 days. Each concentration was tested in groups of three. During the last 18 hours of the incubation, 1 ρCi of [^3H]thymidine (Amersham International, Freiburg, Germany) was added to each well. The cells were then harvested on filter paper (Filtermat A; Wallac, Freiburg, Germany) using a cell harvester (Inotech, Wohlen, Switzerland), and the amount of incorporated [^3H]thymidine in the DNA of the proliferated cells was determined with the aid of a […] (Wallac 1450, Micro-Trilux). The results have been shown as the arithmetic mean of the uptake of [^3H]thymidine in cpm.

S-[2,3-bispalmitoyloxypropyl]cysteinyl-GNNDESNISFKEK ({S‑(2,3-bispalmitoyloxypropyl)Cys}-GNNDESNISFKEK) [MALP-2]
kinetics and overall efficacy of antibody responses compared with 10 μg CTB ([1]; 0.5 μg MALP-2 versus 10 μg CTB, i.n.): very similar
increase of β-galactosidase-specific IgG serum titers ([1]; i.p., 0.5 μg per animal per dose, versus pure β-galactosidase): 100 fold
titers of specific IgG at the end of the immunization protocol ([1]; β-galactosidase with 0.5 μg MALP-2 i.n.): above 500,000
titers of specific IgG in serum after a single dose ([1]; β-galactosidase with 0.5 μg MALP-2 i.n., single dose): > 60,000
antibody responses compared with aluminum hydroxide as standard adjuvant for s.c. injection ([2]; 0.5 μg MALP-2, s.c., i.p., i.d., i.n.): at least as strong as (i.d.) or stronger
adjuvant effect on β-galactosidase-specific serum antibodies ([2]; 0.5 μg MALP-2 mixed with 40 μg β-galactosidase, s.c., i.p., i.d., i.n.): significant increase; also recorded: strong adjuvant effect
adjuvant effect on β-galactosidase-specific serum antibodies at higher dose ([2]; 1 μg MALP-2, i.p. and i.n.): abolition of the adjuvant effect
T-cell proliferation / cellular response compared with CTB as adjuvant ([3]; 0.5 μg MALP-2 versus 10 μg CTB, i.n., p<0.05): statistically significant (p<0.05) increase in T-cell proliferation; also recorded: distinctly higher proliferation
proliferation of lymph node and spleen cells after in vitro restimulation with β-galactosidase ([3]; i.n. immunization, day 31): efficient proliferation response
proliferation of spleen cells after in vitro restimulation with β-galactosidase ([3]; i.p. immunization, day 31): further increase in proliferation
